Several values for one entry are separate records, joined by “and”; a condition that tells them apart may be missing. Equal values may be shown once. Read-outs that look alike come from different tables or passages of the source.
Columns and labels:
TA 1535 [1] = details: TA1535; azide levels 0.08, 0.2, 0.66, 2.0 and 6 ug; 1.5 hours at 37° C. then 18 hrs selective enrichment; no heteroduplex in vehicle control
Description: Reactions were performed in sterile 1.5 ml microfuge tubes. Each tube contained: In a first stage incubation, 1 ul of overnight culture of TA 1535; 6.5 ul LB; 15 ul H2O (or S9); 67.5 ul M9 (−histidine+biotin). These four components are added from a master mix to the microfuge tubes. […] The mixture was incubated 1.5 hours at 37° C. The lids of the tubes were closed, but ventilated by piercing with a needle, for aeration. In a second stage incubation, 800 ul of Selective Enrichment Media was added, and the mixture is incubated for 18 hrs without shaking.
Selective Enrichment Media was prepared in a final volume of 900 ml as follows:
The media was autoclaved and cooled to room temperature. 90 ml of autoclaved 20% glucose was added. Prior to use, Biotin (Sigma) was added from a 400× stock (1.25M) to a final concentration of 1×.
A 1 ul aliquot was used in a “Hot start” PCR amplification with a final denaturation/renaturation step followed by analysis by DHPLC. Each dose was processed in quadruplicate.
For TA1535, the following 342 bp amplicon from the hisG gene was prepared:
In the PCR, the forward primer was [sequence] (SEQ ID NO: 2) and the reverse primer was [sequence] (SEQ ID NO: 3). The DNA polymerase was Optimase™ polymerase. The PCR conditions were as follows: […]

TA 1535 [2] = details: TA1535, 1.5-hour exposure, plates incubated 2 days at 37° C., two columns of counts
Description: For comparative purposes, Ames modified plate assay were performed. […] After the 1.5-hour exposure, the incubation was add to 2 ml of melted top agar, containing limited histidine and biotin, equilibrated to 50° C. (MOLTOX catalog no. 26-503) and plated on minimal plates lacking histidine (MOLTOX catalog no.21-400). The plates were incubated 2 days at 37° C. and revertant colonies counted as shown:

Question: Which “DNA back-mutation at the hot spot (heteroduplex by DHPLC)” value (TA 1535 [1]) does the source give for [N-]=[N+]=[N-] [sodium azide] here?
Answer: caused DNA back-mutation at the hot spot

Question: And the no. revertant colonies (TA 1535 [2]; NaN3 exposure amount 0.08 ug)?
Answer: 3 and 5

Question: And the no. revertant colonies (TA 1535 [2]; NaN3 exposure amount 0.2 ug)?
Answer: 13

Question: And the no. revertant colonies (TA 1535 [2]; NaN3 exposure amount 0.6 ug)?
Answer: 15 and 27

Question: What about the no. revertant colonies (TA 1535 [2]; NaN3 exposure amount 2 ug) of the same compound?
Answer: 39 and 66

Question: What about the no. revertant colonies (TA 1535 [2]; NaN3 exposure amount 6 ug) of the same compound?
Answer: >100
